In PubChem BioAssay (NCI):
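Following 48 hours of exposure in 96-well plates, responses at five concentrations were used to interpolate endpoints linearly. The concentration for full growth arrest is given as TGI.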

Experiments:
Assay in all cases: NCI tumour cell line growth inhibition, 48 h
[1] = test system: 786-0 renal
[2] = test system: A498 renal
[3] = test system: A549 NSCLC
[4] = test system: ACHN renal
[5] = test system: BT-549 breast
[6] = test system: CAKI-1 renal
[7] = test system: CCRF-CEM leukemia
[8] = test system: COLO 205 colon
[9] = test system: DU-145 prostate
[10] = test system: EKVX NSCLC
[11] = test system: HCC-2998 colon
[12] = test system: HCT-116 colon
[13] = test system: HCT-15 colon
[14] = test system: HL-60(TB) leukemia
[15] = test system: HOP-62 NSCLC
[16] = test system: HOP-92 NSCLC
[17] = test system: HS 578T breast
[18] = test system: HT29 colon
[19] = test system: IGROV1 ovarian
[20] = test system: K-562 leukemia
[21] = test system: KM12 colon
[22] = test system: LOX IMVI melanoma
[23] = test system: M14 melanoma
[24] = test system: MALME-3M melanoma
[25] = test system: MCF7 breast
[26] = test system: MDA-MB-231 breast
[27] = test system: MDA-MB-435
[28] = test system: MOLT-4 leukemia
[29] = test system: NCI-H226 lung
[30] = test system: NCI-H23 lung
[31] = test system: NCI-H460 lung
[32] = test system: NCI-H522 lung
[33] = test system: OVCAR-3 ovarian
[34] = test system: OVCAR-4 ovarian
[35] = test system: OVCAR-5 ovarian
[36] = test system: OVCAR-8 ovarian
[37] = test system: PC-3 prostate
[38] = test system: RXF 393 renal
[39] = test system: SF-268 CNS
[40] = test system: SF-295 CNS
[41] = test system: SF-539 CNS
[42] = test system: SK-MEL-28 melanoma
[43] = test system: SK-MEL-5 melanoma
[44] = test system: SK-OV-3 ovarian
[45] = test system: SN12C renal
[46] = test system: SNB-19 CNS
[47] = test system: SR leukemia
[48] = test system: SW-620 colon
[49] = test system: T-47D breast
[50] = test system: TK-10 renal
[51] = test system: U251 CNS
[52] = test system: UACC-257 melanoma
[53] = test system: UACC-62 melanoma
[54] = test system: UO-31 renal
[55] = test system: NCI/ADR-RES ovarian
[56] = test system: RPMI-8226 leukemia
[57] = test system: SK-MEL-2 melanoma
[58] = test system: SNB-75 CNS

O=C1/C(=C/C=C/c2ccccc2)CCC1CNc1ccc(Br)cc1 (stereo not drawn)
TGI [1]: > 100 µM
TGI [2]: > 100 µM
TGI [3]: > 100 µM
TGI [4]: > 100 µM
TGI [5]: > 100 µM
TGI [6]: > 100 µM
TGI [7]: > 100 µM
TGI [8]: 48.6 µM
TGI [9]: > 100 µM
TGI [10]: > 100 µM
TGI [11]: > 100 µM
TGI [12]: > 100 µM
TGI [13]: > 100 µM
TGI [14]: > 100 µM
TGI [15]: > 100 µM
TGI [16]: > 100 µM
TGI [17]: > 100 µM
TGI [18]: > 100 µM
TGI [19]: > 100 µM
TGI [20]: > 100 µM
TGI [21]: > 100 µM
TGI [22]: > 100 µM
TGI [23]: > 100 µM
TGI [24]: 0.246 µM
TGI [25]: > 100 µM
TGI [26]: > 100 µM
TGI [27]: > 100 µM
TGI [28]: > 100 µM
TGI [29]: > 100 µM
TGI [30]: > 100 µM
TGI [31]: > 100 µM
TGI [32]: 57 µM
TGI [33]: > 100 µM
TGI [34]: > 100 µM
TGI [35]: > 100 µM
TGI [36]: > 100 µM
TGI [37]: > 100 µM
TGI [38]: > 100 µM
TGI [39]: > 100 µM
TGI [40]: > 100 µM
TGI [41]: > 100 µM
TGI [42]: > 100 µM
TGI [43]: > 100 µM
TGI [44]: > 100 µM
TGI [45]: > 100 µM
TGI [46]: > 100 µM
TGI [47]: > 100 µM
TGI [48]: > 100 µM
TGI [49]: > 100 µM
TGI [50]: > 100 µM
TGI [51]: > 100 µM
TGI [52]: > 100 µM
TGI [53]: > 100 µM
TGI [54]: > 100 µM

Nc1ccc2c(SCCSc3c4ccccc4nc4cc(N)ccc34)c3ccccc3nc2c1
TGI [1]: > 100 µM
TGI [3]: > 100 µM
TGI [4]: > 100 µM
TGI [5]: > 100 µM
TGI [6]: > 100 µM
TGI [7]: > 100 µM
TGI [8]: > 100 µM
TGI [9]: > 100 µM
TGI [10]: > 100 µM
TGI [12]: > 100 µM
TGI [13]: > 100 µM
TGI [15]: > 100 µM
TGI [16]: > 100 µM
TGI [17]: > 100 µM
TGI [18]: > 100 µM
TGI [19]: > 100 µM
TGI [20]: > 100 µM
TGI [21]: > 100 µM
TGI [22]: > 100 µM
TGI [23]: > 100 µM
TGI [24]: > 100 µM
TGI [25]: > 100 µM
TGI [26]: > 100 µM
TGI [27]: > 100 µM
TGI [28]: 39.3 µM
TGI [29]: > 100 µM
TGI [30]: > 100 µM
TGI [31]: > 100 µM
TGI [32]: > 100 µM
TGI [55]: > 100 µM
TGI [33]: > 100 µM
TGI [34]: > 100 µM
TGI [35]: > 100 µM
TGI [36]: > 100 µM
TGI [37]: > 100 µM
TGI [56]: > 100 µM
TGI [39]: > 100 µM
TGI [40]: > 100 µM
TGI [41]: > 100 µM
TGI [57]: > 100 µM
TGI [42]: > 100 µM
TGI [43]: > 100 µM
TGI [44]: > 100 µM
TGI [45]: > 100 µM
TGI [46]: > 100 µM
TGI [58]: > 100 µM
TGI [47]: > 100 µM
TGI [48]: > 100 µM
TGI [49]: > 100 µM
TGI [50]: > 100 µM
TGI [51]: > 100 µM
TGI [52]: > 100 µM
TGI [53]: > 100 µM
TGI [54]: > 100 µM

O=C1CCC(Cc2ccc(Cl)cc2Cl)C(=O)N1 (stereo not drawn)
TGI [1]: > 100 µM
TGI [3]: > 100 µM
TGI [4]: > 100 µM
TGI [5]: > 100 µM
TGI [6]: > 100 µM
TGI [7]: > 100 µM
TGI [8]: > 100 µM
TGI [9]: > 100 µM
TGI [10]: > 100 µM
TGI [12]: > 100 µM
TGI [13]: > 100 µM
TGI [14]: > 100 µM
TGI [15]: > 100 µM
TGI [16]: > 100 µM
TGI [17]: > 100 µM
TGI [18]: > 100 µM
TGI [19]: > 100 µM
TGI [20]: > 100 µM
TGI [22]: > 100 µM
TGI [23]: > 100 µM
TGI [24]: > 100 µM
TGI [25]: > 100 µM
TGI [26]: > 100 µM
TGI [27]: > 100 µM
TGI [28]: > 100 µM
TGI [29]: > 100 µM
TGI [30]: > 100 µM
TGI [31]: > 100 µM
TGI [32]: > 100 µM
TGI [55]: > 100 µM
TGI [33]: > 100 µM
TGI [34]: > 100 µM
TGI [35]: > 100 µM
TGI [36]: > 100 µM
TGI [37]: > 100 µM
TGI [56]: > 100 µM
TGI [38]: > 100 µM
TGI [39]: > 100 µM
TGI [40]: > 100 µM
TGI [41]: > 100 µM
TGI [57]: > 100 µM
TGI [42]: > 100 µM
TGI [43]: > 100 µM
TGI [44]: > 100 µM
TGI [45]: > 100 µM
TGI [46]: > 100 µM
TGI [58]: > 100 µM
TGI [47]: > 100 µM
TGI [48]: > 100 µM
TGI [49]: > 100 µM
TGI [50]: > 100 µM
TGI [51]: > 100 µM
TGI [52]: > 100 µM
TGI [53]: > 100 µM
TGI [54]: > 100 µM
